Assay results published in article PMC10508264, “Exploring the antioxidant, antimicrobial, cytotoxic and biothermodynamic properties of novel morpholine derivative bioactive Mn(II), Co(II) and Ni(II) complexes – combined experimental and theoretical measurements towards DNA/BSA/SARS-CoV-2 3CL^Pro” (RSC Medicinal Chemistry, 2023).
Where “and” joins values, the source holds several entries; their conditions need not be identical. Equal entries are not always repeated.

Tests used:
[1] = Superoxide scavenging assay; conditions: for % Inhibition, superoxide: 590 nm; for IC50: read-out: IC50, superoxide
[2] = test system: Salmonella enterica serovar typhi; experiment: Agar disc diffusion, strain B; format: cell-based; conditions: for Diameter of clear zone inhibition: control 6 mm
[3] = DPPH radical scavenging assay; format: biochemical; conditions: for % Inhibition, DPPH: 517 nm
Mucor indicus = experiment: Agar disc diffusion, strain J; format: cell-based; parameters: Inhibition%: concentration or dose not given beside the values; conditions: for Diameter of clear zone inhibition: control 6 mm
EB–DNA = EB–DNA competitive fluorescence emission titration; format: binding; conditions: for KSV (SV method I), DNA / Kass (SV method II), DNA / Kq (SV method I), DNA: EB–DNA; for Kq (SV method I), DNA: τ0 = 10^−8 s; for Kapp (apparent binding constant): KEB = 10^7 M^−1 at 50 μM EB; for LWB method KLB: Lineweaver–Burk
Method: Titrations were performed for all tested compounds (1–200 μM) with pre-incubated EB-bound DNA and the intensity variations between 510 nm and 610 nm were carefully monitored in the presence and absence of DNA (200 μM) during the initial emission and excitation by EB.[31]
Fluorescence emission spectral titration is an efficient approach to evaluating the binding properties of DNA/BSA biomolecules. In general, the fluorescence of EB is quite weak in aqueous solution, but when it is bound to DNA, the fluorescence intensity rises. However, it is a well-known imperative intercalator and is more supportive in distinguishing the binding strength of non-fluorescence test substances. Also, the fluorescence emission spectra of the EB–DNA adduct were examined at 610 nm in the absence and presence of rising quantities of each test compound. When the complex concentration (0–240 μM) rises, the fluorescence intensity of the EB-bound DNA complex diminishes owing to the displacement of EB from CT-DNA. A notable reduction in the fluorescence emission intensity at 610 nm is observed (Fig. S26 ^† and Table 4). The photoelectron shift from DNA's guanine base to the excited states may be the cause of the frequency quenching in the emission of the test substance by DNA. […] Therefore, the competitive binding experiment can make use of EB as a fluorescent probe. […] This is further evidence that complexes (1–3) strongly bind intercalatively with DNA. The observed results agree well with the data from electronic absorption spectral measurements. Additionally, the experiment was extended to examine the binding properties between the test substance and BSA. BSA mostly contains three amino acid residues (tyrosine, tryptophan, and phenylalanine), which give it its inherent fluorescence. […] These two residues also have minimal quenching effects. Tryptophan in BSA fluoresces mostly because of a residue that is trapped inside a hydrophobic cavity. Therefore, it is crucial to model potential binding interactions with the metal complexes. […] The fluorescence intensity also reduces while the test substances (1–3) are steadily blended with the BSA solution, proving that complexes (1–3) interact with BSA via altering the protein's secondary structure, which also leads to an alteration in the tryptophan environment of BSA (Fig. S27 ^†). Furthermore, BSA structural similarities share 76% sequence identity with human serum albumin (HSA), the most prevalent protein in blood plasma that transports ions and proteins to cells and tissues. HSA is able to readily crystallize under the trivalent cations, but BSA has no ready crystallizing property. However, they consist of parallel physicochemical properties to each other.[74,75] Additionally, the Stern–Volmer eqn (12) and (13) were employed to analyze the data (Fig. S28 ^† and Table 4). Additionally, the kq values for DNA and BSA binding were acquired in the range of 1.1636–2.8863 × 10^12 and 2.6390–7.0774 × 10^12 mol^−1 s^−1, respectively. They are also much greater than the collision quenching constant value (2.0 × 10^10 mol^−1 s^−1). Therefore, it is assumed that the static quenching process was brought on by adduct construction between the test compounds and BSA rather than a dynamic collision. However, fluorescence spectroscopy is generally plagued by the inner filter effect (IFE), disturbing spectral analysis. The energizing ray is attenuated due to the highly concentrated solution sample. As a result, strong fluorescence is only seen on surfaces facing the excitation beam.

Bacillus cereu = experiment: Agar disc diffusion, strain G; format: cell-based; parameters: Inhibition%: concentration or dose not given beside the values; conditions: for Diameter of clear zone inhibition: control 6 mm
A549 = experiment: MTT cell viability assay, A549; format: cell-based, human; conditions: A549, 72 h of exposure
HepG2 = experiment: MTT cell viability assay, HepG2; format: cell-based, human; conditions: HepG2, 72 h of exposure
Aspergillus niger = experiment: Agar disc diffusion, strain H; format: cell-based; parameters: Inhibition%: concentration or dose not given beside the values; conditions: for Diameter of clear zone inhibition: control 6 mm

In the case of `[Mn+2].[O-]c1ccccc1N=Cc1ccc(N2CCOCC2)cc1.[O-]c1ccccc1N=Cc1ccc(N2CCOCC2)cc1.c1ccc(-c2ccccn2)nc1` [(1)], the “% Inhibition, superoxide” value ([1]; 40 µM) is reported as 06.85%, the “% Inhibition, superoxide” value ([1]; 80 µM) is reported as 13.32% and the “% Inhibition, superoxide” value ([1]; 120 µM) is reported as 22.56%. The “% Inhibition, superoxide” value ([1]; 160 µM) was 36.63%, the “% Inhibition, superoxide” value ([1]; 200 µM) was 45.42% and the “% Inhibition, superoxide” value ([1]; 240 µM) was 54.12%. For the same compound, the Inhibition% [2] was 50%, the “Diameter of clear zone inhibition” value [2] was 12 mm and the “% Inhibition, DPPH” value ([3]; 40 µM) was 11.16%. For the same compound, the “% Inhibition, DPPH” value ([3]; 80 µM) was 18.62%, the “% Inhibition, DPPH” value ([3]; 120 µM) was 30.41% and the “% Inhibition, DPPH” value ([3]; 160 µM) was 37.32%. The “% Inhibition, DPPH” value ([3]; 200 µM) was 42.47%, the “% Inhibition, DPPH” value ([3]; 240 µM) was 62.23% and 58.05% and the Inhibition% (Mucor indicus) was 45%. The “Diameter of clear zone inhibition” value (Mucor indicus) was 11 mm, the “Scatchard analysis KSA” value (EB–DNA) was 30094 M⁻¹ and the “KSV (SV method I), DNA” value (EB–DNA) was 16755 M⁻¹. The “Kass (SV method II), DNA” value (EB–DNA) was 11954 M⁻¹, the “Kq (SV method I), DNA” value (EB–DNA) was 1.6755e+12 M⁻¹ s⁻¹ and the “Kapp (apparent binding constant)” value (EB–DNA) was 5.926e+06 M⁻¹. The “LWB method KLB” value (EB–DNA) was 7149 M⁻¹, the Inhibition% (Bacillus cereu) was 57% and the “Diameter of clear zone inhibition” value (Bacillus cereu) was 14 mm. The IC50 (A549) was 37.6 ± 1.9 µM, the IC50 (HepG2) was 36 ± 1.8 µM and the Inhibition% (Aspergillus niger) was 50%. For the same compound, the “Diameter of clear zone inhibition” value (Aspergillus niger) was 12 mm.

In the case of `[Co+2].[O-]c1ccccc1N=Cc1ccc(N2CCOCC2)cc1.[O-]c1ccccc1N=Cc1ccc(N2CCOCC2)cc1.c1ccc(-c2ccccn2)nc1` [(2)], the “% Inhibition, superoxide” value ([1]; 40 µM) is reported as 07.02%, the “% Inhibition, superoxide” value ([1]; 80 µM) is reported as 11.73% and the “% Inhibition, superoxide” value ([1]; 120 µM) is reported as 25.81%. For the same compound, the “% Inhibition, superoxide” value ([1]; 160 µM) was 43.12%, the “% Inhibition, superoxide” value ([1]; 200 µM) was 54.42% and the “% Inhibition, superoxide” value ([1]; 240 µM) was 62.24%. The IC50 [1] was 200 µM, the Inhibition% [2] was 40% and the “Diameter of clear zone inhibition” value [2] was 10 mm. For the same compound, the IC50 [3] was 200 µM, the “% Inhibition, DPPH” value ([3]; 40 µM) was 14.20% and the “% Inhibition, DPPH” value ([3]; 80 µM) was 26.76%. The “% Inhibition, DPPH” value ([3]; 120 µM) was 31.64%, the “% Inhibition, DPPH” value ([3]; 160 µM) was 45.67% and the “% Inhibition, DPPH” value ([3]; 200 µM) was 52.54%. The “% Inhibition, DPPH” value ([3]; 240 µM) was 62.23%, the Inhibition% (Mucor indicus) was 45% and the “Diameter of clear zone inhibition” value (Mucor indicus) was 11 mm. For the same compound, the “Scatchard analysis KSA” value (EB–DNA) was 33185 M⁻¹, the “KSV (SV method I), DNA” value (EB–DNA) was 28863 M⁻¹ and the “Kass (SV method II), DNA” value (EB–DNA) was 32903 M⁻¹. The “Kq (SV method I), DNA” value (EB–DNA) was 2.8863e+12 M⁻¹ s⁻¹, the “Kapp (apparent binding constant)” value (EB–DNA) was 8.349e+06 M⁻¹ and the “LWB method KLB” value (EB–DNA) was 13497 M⁻¹. The Inhibition% (Bacillus cereu) was 54%, the “Diameter of clear zone inhibition” value (Bacillus cereu) was 13 mm and the IC50 (A549) was 34.2 ± 1.7 µM. For the same compound, the IC50 (HepG2) was 35.9 ± 1.8 µM, the Inhibition% (Aspergillus niger) was 50% and the “Diameter of clear zone inhibition” value (Aspergillus niger) was 12 mm.

In the case of `[Ni+2].[O-]c1ccccc1N=Cc1ccc(N2CCOCC2)cc1.[O-]c1ccccc1N=Cc1ccc(N2CCOCC2)cc1.c1ccc(-c2ccccn2)nc1` [(3)], the “% Inhibition, superoxide” value ([1]; 40 µM) is reported as 06.27%, the “% Inhibition, superoxide” value ([1]; 80 µM) is reported as 12.17% and the “% Inhibition, superoxide” value ([1]; 120 µM) is reported as 24.31%. The “% Inhibition, superoxide” value ([1]; 160 µM) was 40.01%, the “% Inhibition, superoxide” value ([1]; 200 µM) was 50.78% and the “% Inhibition, superoxide” value ([1]; 240 µM) was 58.83%. For the same compound, the IC50 [1] was 200 µM, the Inhibition% [2] was 40% and the “Diameter of clear zone inhibition” value [2] was 10 mm. For the same compound, the “% Inhibition, DPPH” value ([3]; 40 µM) was 13.08%, the “% Inhibition, DPPH” value ([3]; 80 µM) was 24.74% and the “% Inhibition, DPPH” value ([3]; 120 µM) was 30.86%. For the same compound, the “% Inhibition, DPPH” value ([3]; 160 µM) was 41.06%, the “% Inhibition, DPPH” value ([3]; 200 µM) was 49.83% and the “% Inhibition, DPPH” value ([3]; 240 µM) was 60.02%. The Inhibition% (Mucor indicus) was 54%, the “Diameter of clear zone inhibition” value (Mucor indicus) was 13 mm and the “Scatchard analysis KSA” value (EB–DNA) was 32363 M⁻¹. For the same compound, the “KSV (SV method I), DNA” value (EB–DNA) was 16879 M⁻¹, the “Kass (SV method II), DNA” value (EB–DNA) was 10350 M⁻¹ and the “Kq (SV method I), DNA” value (EB–DNA) was 1.6879e+12 M⁻¹ s⁻¹. The “Kapp (apparent binding constant)” value (EB–DNA) was 7.34e+06 M⁻¹, the “LWB method KLB” value (EB–DNA) was 7786 M⁻¹ and the Inhibition% (Bacillus cereu) was 54%. The “Diameter of clear zone inhibition” value (Bacillus cereu) was 13 mm, the IC50 (A549) was 33.5 ± 1.7 µM and the IC50 (HepG2) was 33.6 ± 1.7 µM. For the same compound, the Inhibition% (Aspergillus niger) was 50% and the “Diameter of clear zone inhibition” value (Aspergillus niger) was 12 mm.

For `Oc1ccccc1N=Cc1ccc(N2CCOCC2)cc1` [(HL), 2-(4-morpholinobenzylideneamino)phenol], the “% Inhibition, superoxide” value ([1]; 40 µM) was 05.23%, the “% Inhibition, superoxide” value ([1]; 80 µM) was 10.74% and the “% Inhibition, superoxide” value ([1]; 120 µM) was 18.85%. The “% Inhibition, superoxide” value ([1]; 160 µM) was 33.55%, the “% Inhibition, superoxide” value ([1]; 200 µM) was 40.91% and the “% Inhibition, superoxide” value ([1]; 240 µM) was 50.42%. The Inhibition% [2] was 33%, the “Diameter of clear zone inhibition” value [2] was 09 mm and the “% Inhibition, DPPH” value ([3]; 40 µM) was 09.45%. The “% Inhibition, DPPH” value ([3]; 80 µM) was 15.21%, the “% Inhibition, DPPH” value ([3]; 120 µM) was 26.36% and the “% Inhibition, DPPH” value ([3]; 160 µM) was 34.56%. For the same compound, the “% Inhibition, DPPH” value ([3]; 200 µM) was 39.41%, the “% Inhibition, DPPH” value ([3]; 240 µM) was 52.45% and the Inhibition% (Mucor indicus) was 45%. The “Diameter of clear zone inhibition” value (Mucor indicus) was 11 mm, the “Scatchard analysis KSA” value (EB–DNA) was 19093 M⁻¹ and the “KSV (SV method I), DNA” value (EB–DNA) was 11636 M⁻¹. The “Kass (SV method II), DNA” value (EB–DNA) was 9606 M⁻¹, the “Kq (SV method I), DNA” value (EB–DNA) was 1.1636e+12 M⁻¹ s⁻¹ and the “Kapp (apparent binding constant)” value (EB–DNA) was 5.829e+06 M⁻¹. The “LWB method KLB” value (EB–DNA) was 6985 M⁻¹, the Inhibition% (Bacillus cereu) was 33% and the “Diameter of clear zone inhibition” value (Bacillus cereu) was 09 mm. For the same compound, the IC50 (A549; Homo sapiens) was 126 ± 6.3 µM, the IC50 (HepG2; Homo sapiens) was 108 ± 5.4 µM and the Inhibition% (Aspergillus niger) was 40%. The “Diameter of clear zone inhibition” value (Aspergillus niger) was 10 mm.
